US20240246935A1 (Plexium, Inc., priority 2021, published 2024)

What follows are molecules tested against human E3 ligase component cereblon (CRBN) (Homo sapiens (Human), UniProt Q96SW2) (assay: Cereblon (CRBN) target engagement, NanoBRET TE Intracellular E3 Ligase Assay in transfected HEK-293T cells). Conditions: read-out: CRBN Binding EC50.
Experimental: HEK293T cells were harvested ca. 75% confluent with trypsin and plated (500,000 cells/well) in a 6-well tissue culture plate in 2 mL of Dulbecco's Modified Eagle Medium (DMEM)+10% Fetal Bovine Serum (FBS) and incubated overnight at 37° C.
The NanoLuc-CRBN fusion vector (Nluc-CRBN; Promega) contains the coding region of human E3 ligase component cereblon (CRBN) fused to the C-terminus of the NanoLuc luciferase coding region. A mixture of 10 ng Nluc-CRBN and 990 ng DDB1 Expression Vector (Promega) was added to 125 μL Opti-Minimum Essential Medium (Opti-MEM™; Thermo Fisher) along with 2 μL P3000 reagent (Thermo Fisher) in a 1.5 mL epppendorf tube. This solution was added to Lipofectamine 3000 transfection reagent (5 μL; Thermo Fisher) in Opti-MEM (125 μL), mixed well, and incubated for 15 minutes at room temperature. The transfection mixture was added dropwise to cells and incubated overnight at 37° ° C., 5% CO2. Following transfection, cells were washed once with PBS, and trypsin (250 μL) was added and incubated 30-45 sec to dislodge cells. Complete media (2 mL) was added to resuspend cells to form a single cell suspension. Cells were centrifuged at 320×g for 5 min at room temperature, the supernatant was removed, and the cell pellet resuspended in Opti-MEM (3 mL; wash step repeated×2). After final resuspension in 5 mL Opti-MEM, cells were counted and resuspended at 200,000 cells/mL in Opti-MEM.
Cereblon target engagement was monitored by Bioluminescence Resonance Energy Transfer (BRET) in transfected HEK-293T cells using the NanoBRET TE Intracellular E3 Ligase Assay (Promega). Briefly, 384-well plates (white opaque plates, Corning 3574, low binding surface) were seeded with transfected HEK-293T cells (38 μL/well). 2 μL of 10 μM CRBN tracer (diluted 1:5 in Tracer Dilution Buffer) was added to each well. Plates were centrifuged at 320×g for 1 min at room temperature. Test compounds were added in a 11-point dilution series (typically 10 μM to […]) using a TECAN D300e Digital Dispenser. Plates were shaken for 2 minutes on a microplate shaker to mix compounds. Plates were centrifuged at 320×g for 1 min at room temperature, and subsequently incubated for 2 hours at 37° C.
After incubation, plates were allowed to cool to room temperature for 15 minutes. 20 μL of 3× Complete NanoBRET™ Nano-Glo® Substrate plus Inhibitor Solution (Promega, 1:166 Substrate and 1:500 dilution of Extracellular NanoLuc® Inhibitor diluted in Opti-MEM) were added to each well. Plates were incubated with shaking at room temperature for 3 minutes covered with foil. Plates were read on a CLARIOstar microplate reader (BMG LabTech), measuring at 450 nm (donor emission) and 610 nm (acceptor emission). The IC50 values were determined by regression to best fit four-parameter logistic curves using GraphPad Prism.

Sequence of human E3 ligase component cereblon (CRBN) (Q96SW2 whole entry): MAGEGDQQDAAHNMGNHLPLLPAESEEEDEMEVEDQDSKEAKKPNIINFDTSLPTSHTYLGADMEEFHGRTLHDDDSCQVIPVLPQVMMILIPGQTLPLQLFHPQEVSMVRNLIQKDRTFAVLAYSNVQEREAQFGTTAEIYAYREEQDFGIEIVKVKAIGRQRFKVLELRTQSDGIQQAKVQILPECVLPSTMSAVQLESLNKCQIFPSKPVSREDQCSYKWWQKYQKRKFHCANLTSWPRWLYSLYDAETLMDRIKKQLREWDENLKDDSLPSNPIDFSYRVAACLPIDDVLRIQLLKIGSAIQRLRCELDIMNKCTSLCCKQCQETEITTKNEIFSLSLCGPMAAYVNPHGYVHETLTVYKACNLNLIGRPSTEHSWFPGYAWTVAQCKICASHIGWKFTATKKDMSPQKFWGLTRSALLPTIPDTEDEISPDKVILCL
Sequence of human E3 ligase component cereblon (CRBN) (Q16531 whole entry partner): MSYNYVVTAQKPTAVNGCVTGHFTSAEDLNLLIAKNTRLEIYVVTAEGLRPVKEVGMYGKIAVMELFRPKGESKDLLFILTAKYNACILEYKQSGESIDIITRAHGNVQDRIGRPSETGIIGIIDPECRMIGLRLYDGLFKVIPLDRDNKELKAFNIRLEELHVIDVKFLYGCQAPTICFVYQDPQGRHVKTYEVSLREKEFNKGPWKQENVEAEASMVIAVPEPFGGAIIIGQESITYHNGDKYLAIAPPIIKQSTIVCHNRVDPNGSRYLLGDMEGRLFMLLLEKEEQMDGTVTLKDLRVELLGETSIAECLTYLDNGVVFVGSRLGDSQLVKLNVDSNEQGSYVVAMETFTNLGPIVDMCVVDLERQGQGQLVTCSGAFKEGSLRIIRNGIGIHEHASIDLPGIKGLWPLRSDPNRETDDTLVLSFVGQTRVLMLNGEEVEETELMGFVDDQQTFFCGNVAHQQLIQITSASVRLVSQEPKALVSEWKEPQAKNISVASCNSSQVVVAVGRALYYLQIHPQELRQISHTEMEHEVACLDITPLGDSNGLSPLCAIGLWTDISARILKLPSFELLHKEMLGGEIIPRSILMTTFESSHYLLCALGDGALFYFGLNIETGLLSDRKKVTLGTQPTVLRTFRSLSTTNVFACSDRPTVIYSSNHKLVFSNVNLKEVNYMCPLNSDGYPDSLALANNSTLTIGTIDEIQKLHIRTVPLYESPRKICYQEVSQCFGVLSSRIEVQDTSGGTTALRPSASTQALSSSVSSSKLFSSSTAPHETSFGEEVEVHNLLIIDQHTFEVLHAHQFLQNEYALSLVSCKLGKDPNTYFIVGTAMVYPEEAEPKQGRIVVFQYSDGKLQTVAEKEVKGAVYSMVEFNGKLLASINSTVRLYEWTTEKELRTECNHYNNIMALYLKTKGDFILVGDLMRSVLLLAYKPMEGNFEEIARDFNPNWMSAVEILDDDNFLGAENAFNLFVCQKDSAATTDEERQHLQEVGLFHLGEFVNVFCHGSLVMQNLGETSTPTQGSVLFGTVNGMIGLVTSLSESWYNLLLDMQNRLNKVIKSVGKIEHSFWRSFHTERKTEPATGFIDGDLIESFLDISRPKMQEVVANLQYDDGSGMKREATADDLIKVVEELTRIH

Row | SMILES | EC50 [µM]
1 | N#Cc1cc(F)ccc1C1CN([C@@H]2CCC[C@@H]2Oc2ccc3c(c2)CN(C24CC(C2)C(=O)NC4=O)C3=O)C1 (racemic) [Compound 70, Rac-2-(1-((cis)-2-((2-(2,4-dioxo-3-azabicyclo[3.1.1]heptan-1-yl)-1-oxoisoindolin-5-yl)oxy)cyclopentyl)azetidin-3-yl)-5-fluorobenzonitrile] | > 10
2 | N#Cc1cccc(C2CN([C@H]3CCCC[C@H]3Oc3ccc4c(c3)CN(C35CC(C3)C(=O)NC5=O)C4=O)C2)c1 (racemic) [Compound 77, Rac-3-(1-((cis)-2-((2-(2,4-dioxo-3-azabicyclo[3.1.1]heptan-1-yl)-1-oxoisoindolin-5-yl)oxy)cyclohexyl)azetidin-3-yl)benzonitrile] | > 10
3 | N#Cc1cccc(C2CN([C@H]3CCCC[C@@H]3Oc3ccc4c(c3)CN(C35CC(C3)C(=O)NC5=O)C4=O)C2)c1 (racemic) [Compound 78, Rac-3-(1-((trans)-2-((2-(2,4-dioxo-3-azabicyclo[3.1.1]heptan-1-yl)-1-oxoisoindolin-5-yl)oxy)cyclohexyl)azetidin-3-yl)benzonitrile] | > 10
4 | N#Cc1ccc(C2CN([C@H]3CCCC[C@H]3Oc3ccc4c(c3)CN(C35CC(C3)C(=O)NC5=O)C4=O)C2)c(F)c1 (racemic) [Compound 90, Rac-4-(1-((cis)-2-((2-(2,4-dioxo-3-azabicyclo[3.1.1]heptan-1-yl)-1-oxoisoindolin-5-yl)oxy)cyclohexyl)azetidin-3-yl)-3-fluorobenzonitrile] | > 10
5 | N#Cc1ccc(C2CN([C@H]3CCCC[C@@H]3Oc3ccc4c(c3)CN(C35CC(C3)C(=O)NC5=O)C4=O)C2)c(F)c1 (racemic) [Compound 91, Rac-4-(1-((trans)-2-((2-(2,4-dioxo-3-azabicyclo[3.1.1]heptan-1-yl)-1-oxoisoindolin-5-yl)oxy)cyclohexyl)azetidin-3-yl)-3-fluorobenzonitrile] | > 10
6 | N#Cc1ccc(C2CN([C@H]3CCCC[C@H]3Oc3ccc4c(c3)CN(C35CC(C3)C(=O)NC5=O)C4=O)C2)cc1 (racemic) [Compound 92, Rac-4-(1-((cis)-2-((2-(2,4-dioxo-3-azabicyclo[3.1.1]heptan-1-yl)-1-oxoisoindolin-5-yl)oxy)cyclohexyl)azetidin-3-yl)benzonitrile] | > 10
7 | N#Cc1ccc(C2CN([C@H]3CCCC[C@@H]3Oc3ccc4c(c3)CN(C35CC(C3)C(=O)NC5=O)C4=O)C2)cc1 (racemic) [Compound 93, Rac-4-(1-((trans)-2-((2-(2,4-dioxo-3-azabicyclo[3.1.1]heptan-1-yl)-1-oxoisoindolin-5-yl)oxy)cyclohexyl)azetidin-3-yl)benzonitrile] | > 10
8 | N#Cc1ccccc1C1CN([C@H]2CCCC[C@H]2Oc2ccc3c(c2)CN(C24CC(C2)C(=O)NC4=O)C3=O)C1 (racemic) [Compound 94, Rac-2-(1-((cis)-2-((2-(2,4-dioxo-3-azabicyclo[3.1.1]heptan-1-yl)-1-oxoisoindolin-5-yl)oxy)cyclohexyl)azetidin-3-yl)benzonitrile] | > 10
9 | N#Cc1ccccc1C1CN([C@H]2CCCC[C@@H]2Oc2ccc3c(c2)CN(C24CC(C2)C(=O)NC4=O)C3=O)C1 (racemic) [Compound 95, Rac-2-(1-((trans)-2-((2-(2,4-dioxo-3-azabicyclo[3.1.1]heptan-1-yl)-1-oxoisoindolin-5-yl)oxy)cyclohexyl)azetidin-3-yl)benzonitrile] | > 10
10 | N#Cc1cc(F)ccc1C1CN([C@H]2CCCC[C@H]2Oc2ccc3c(c2)CN(C2CCC(=O)NC2=O)C3=O)C1 (mixture of isomers) [Compound 102, Rac-2-(1-((cis)-2-((2-(2,6-dioxopiperidin-3-yl)-1-oxoisoindolin-5-yl)oxy)cyclohexyl)azetidin-3-yl)-5-fluorobenzonitrile] | 0.024
11 | O=C1NC(=O)C2(N3Cc4cc(O[C@H]5CCC[C@@H]5N5CC(c6ccccc6Cl)C5)ccc4C3=O)CC1C2 [Compound 82, 1-(5-(((1S,2S)-2-(3-(2-chlorophenyl)azetidin-1-yl)cyclopentyl)oxy)-1-oxoisoindolin-2-yl)-3-azabicyclo[3.1.1]heptane-2,4-dione] | 0.921
12 | O=C1NC(=O)C2(N3Cc4cc(O[C@H]5CCCC[C@@H]5N5CC(c6ccc(F)cc6Cl)C5)ccc4C3=O)CC1C2 [Compound 85, 1-(5-(((1S,2S)-2-(3-(2-chloro-4-fluorophenyl)azetidin-1-yl)cyclohexyl)oxy)-1-oxoisoindolin-2-yl)-3-azabicyclo[3.1.1]heptane-2,4-dione] | > 10
13 | O=C1NC(=O)C2(N3Cc4cc(O[C@H]5CCC[C@@H]5N5CC(c6ccccc6)C5)ccc4C3=O)CC1C2 [Compound 105, 1-(1-oxo-5-(((1S,2S)-2-(3-phenylazetidin-1-yl)cyclopentyl)oxy)isoindolin-2-yl)-3-azabicyclo[3.1.1]heptane-2,4-dione] | > 10
14 | O=C1NC(=O)C2(N3Cc4cc(O[C@H]5CCCC[C@@H]5N5CCC(c6ccccc6)C5)ccc4C3=O)CC1C2 (stereo partly drawn) [Compound 106, 1-(1-oxo-5-(((1S,2S)-2-(3-phenylpyrrolidin-1-yl)cyclohexyl)oxy)isoindolin-2-yl)-3-azabicyclo[3.1.1]heptane-2,4-dione] | > 10

Each molecule was assayed on IKZF2 (Helios) (assay: IKZF2 reporter degradation assay (HEK 293T IKZF2-mNeonGreen reporter cell line)). Conditions: 1 μM compound, 24 hour incubation, HEK 293T IKZF2-mNeonGreen reporter.
Assay type: cell-based, human
Description: Polycistronic plasmids were constructed for the mammalian expression of fluorescent reporter fusions of human transcription factors IKZF1 (Ikaros), IKZF2 (Helios), and IKZF3 (Aiolos). The respective protein sequences had their C-terminal end joined to a GGGGS linker repeated three times followed by mNeonGreen, P2A sequence, and mScarlet. The DNA sequences of the open reading frames are as follows:
IKZF1, IKZF2, and IKZF3 constructs were cloned into the UCOE Hygromycin expression vectors (Millipore Sigma). Reporter constructs were transfected using cationic lipid reagents into adherent HEK 293T cells and stable integrants were selected by treatment with 200 μg/mL hygromycin B. Clonal populations were obtained from the population of stable integrants either by limiting dilution or fluorescence activated cell sorting.
The clonal stable cell lines were maintained under constant 200 μg/mL hygromycin B selection while being passaged for use in the degradation assays. […] The fluorescence intensity of the IKZF1/2/3-mNeonGreen (FITC channel) and mScarlet (PE channel) reporters were routinely analyzed by flow cytometry to confirm consistent expression levels between experiments.
The IKZF1/IKZF2/IKZF3 degradation assays were carried out by harvesting the HEK 293T reporter cell lines and resuspending the cells in media formulated for reduced background fluorescence (FluoroBrite; Thermo Fisher). The respective cell lines were seeded at a density of 4000 cells/well into black-walled 384-well optical grade assay tissue culture plates. The cells were incubated overnight at 37° C. to allow for attachment to the assay plate. Dilutions of the compounds were prepared in DMSO from 10 mM compound stocks. The assay plates were treated with appropriate concentrations of the compounds by dispensing the DMSO dilutions in quadruplicate wells with an upper limit of 0.5% final DMSO.
After 24 hour incubation with the compounds, the assay plates were imaged on an ImageXpress Pico microscopy system (cells maintained at 37° C. during imaging) to obtain the fluorescent readouts. The assay plates were imaged in the FITC and Tetramethylrhodamine (TRITC) channels to obtain the mNeonGreen fluorescence intensity (reporter degradation data) and mScarlet fluorescence intensity (for cell segmentation). 293T-IKZF1 and 293T-IKZF3 reporter cell lines were imaged with exposures of 500 milliseconds (ms) for both FITC and TRITC channels, while the 293T-IKZF2 reporter cell line was imaged with exposures of 1000 ms for FITC and 1250 ms for TRITC. The resulting data was analyzed with Cell Reporter Xpress software using the 2-channel cell scoring analysis with a “percent positive” readout. The TRITC channel was selected for the “nuclei” segmentation with a threshold of 20 while the FITC channel was selected for the “Marker 1” segmentation and a threshold of 100 for the IKZF1 and IKZF3 reporter lines. […] The minimum segmentation width was set to 6 micrometers and the maximum segmentation width was set to 15 micrometers for all cell lines. The DCs calculations were determined by regression to best fit four-parameter logistic curves using GraphPad Prism.

Row | SMILES | IKZF2 % Degradation @ 1 μM [%]
15 | O=C1CCC(N2Cc3cc(O[C@H]4CCC[C@@H]4N4CC(c5cccc(F)c5)C4)ccc3C2=O)C(=O)N1 (stereo partly drawn) [Compound 88, 3-(5-(((1S,2S)-2-(3-(3-fluorophenyl)azetidin-1-yl)cyclopentyl)oxy)-1-oxoisoindolin-2-yl)piperidine-2,6-dione] | 71.4
16 | O=C1CCC(N2Cc3cc(O[C@H]4CCCC[C@@H]4N4CC(c5ccc(F)cc5Cl)C4)ccc3C2=O)C(=O)N1 (stereo partly drawn) [Compound 103, 3-(5-(((1S,2S)-2-(3-(2-chloro-4-fluorophenyl)azetidin-1-yl)cyclohexyl)oxy)-1-oxoisoindolin-2-yl)piperidine-2,6-dione] | 73.4
17 | O=C1CCC(N2Cc3cc(O[C@H]4CCC[C@@H]4N4CC(c5ccc(F)cc5Cl)C4)ccc3C2=O)C(=O)N1 (stereo partly drawn) [Compound 104, 3-(5-(((1S,2S)-2-(3-(2-chloro-4-fluorophenyl)azetidin-1-yl)cyclopentyl)oxy)-1-oxoisoindolin-2-yl)piperidine-2,6-dione] | 71.2
